Assay results: publication PMC4994518 (Journal of medicinal chemistry, 2010)

Key:
[1] = system: MDA-MB-231 breast tumor cell line; assay: Growth inhibition of MDA-MB-231 breast tumor cell line; assay type: cell-based, human; details: for inhibition at 10 µM: Homo sapiens, MDA-MB-231, read-out: % growth inhibition at 10 μM
Human recombinant PDE 5A = Human recombinant PDE 5A (Homo sapiens, UniProt O76074); assay: Phosphodiesterase assay; assay type: biochemical; details: for % PDE 5 inhibition at 10 μM: recombinant human PDE5, 10 μM, duplicate values

In the case of `COC(=O)[C@H]1Cc2c([nH]c3ccccc23)[C@H](c2ccc(Cl)c(Cl)c2)N1` [Compound 6, (1S,3R)Methyl-1-(3,4-dichlorophenyl)-2,3,4,9-tetrahydro-1H-β-carboline-3-carboxylate], the IC50 ([1]; read-out: growth inhibition IC50 (μM) and CI at p < 0.05, MDA-MB-231, at least 8 concentrations, quadruple replicates, CI in brackets) is reported as less than 10 µM.

`COC(=O)[C@H]1Cc2c([nH]c3ccccc23)[C@@H](c2c(Cl)cccc2Cl)N1` [Compound 9, (1R,3R)Methyl-1-(2,6-dichlorophenyl)-2,3,4,9-tetrahydro-1H-β-carboline-3 carboxylate] was tested, and the “% PDE 5 inhibition at 10 μM” value (Human recombinant PDE 5A) was “inactive”.

With `COC(=O)[C@@H]1Cc2c([nH]c3ccccc23)[C@H](c2c(Cl)cccc2Cl)N1` [Compound 10, (1S,3S)Methyl-1-(2,6-dichlorophenyl)-2,3,4,9-tetrahydro-1H-β-carboline-3-carboxylate] the “% PDE 5 inhibition at 10 μM” value (Human recombinant PDE 5A) was “inactive”.

Work on `CCN1C(=O)[C@@H]2Cc3c([nH]c4ccccc34)[C@@H](c3ccc(Cl)cc3Cl)N2C1=O` [Compound 14, (5R,11aS) 5-(2,4-Dichlorophenyl)-2-ethyl-5,6,11,11a-tetrahydro-1H-imidazo [1′,5′:1,6] pyrido[3,4-b]indole-1,3(2H)-dione] yielded a selectivity index (Human recombinant PDE 5A; IC50 of PDE11A (cGMP)/IC50 of PDE5A (cGMP)) greater than 200.

For `COC(=O)[C@H]1Cc2c([nH]c3ccccc23)[C@@H](c2ccc(Cl)cc2Cl)N1C(=O)CCl` [Compound 31, (1R,3R)Methyl 1-(2,4-Dichlorophenyl)-2-(2-chloroacetyl)-2,3,4,9-tetrahydro-1H-β-carboline-3-carboxylate], the inhibition at 10 µM [1] was 98%.

`COC(=O)[C@H]1Cc2c([nH]c3ccccc23)[C@H](c2ccc(Cl)cc2Cl)N1C(=O)CCl` [Compound 32, (1S,3R)Methyl 1-(2,4-Dichlorophenyl)-2-(2-chloroacetyl)-2,3,4,9-tetrahydro-1H-β-carboline-3-carboxylate] was tested, and the inhibition at 10 µM [1] was 98% and the “growth inhibitory potency relative to 31” value ([1]; MDA-MB-231) was roughly 10 times.
